Test results as given in patent US20100190688A1, “Tetrapeptide analogs” (priority 2004, published 2010).

Tests used:
[1] = target: T1, BIR3-mediated Caspase-9 inhibition (UniProt Q9R0I6); assay: Caspase-9 rescue assay (relief of BIR3-mediated Caspase-9 inhibition); assay type: biochemical, human Caspase-9; Rat or Chicken BIR3; details: average EC50, substrate Ac-LEHD-amc, pH 6.5
T1 construct: Nothing is printed for this assay
Procedure: Additionally the compounds and compositions can be evaluated for their ability to achieve relief of BIR3-mediated Caspase-9 inhibition by measuring Caspase-9 reactivation. The fluorogenic substrate Ac-LEHD-7-amido-4-methylcoumarin is used in these methods. EC50 values of tested BIR3 inhibitors or Caspase-9 rescuers is calculated from the percentage of Caspase-9 reactivation in the mixtures containing serially diluted concentrations of tested compound. Typically, 10-point curves are generated for such EC50 determination.
Relief of BIR3-mediated Caspase-9 inhibition by BIR3 inhibitors was assayed by measuring Caspase-9 reactivation using the fluorogenic substrate Ac-LEHD-7-amido-4-methylcoumarin. A truncated form of human Caspase-9 that lacks the N-terminal Caspase recruitment domain (EPro-Caspase-9 or p35/p12) was used in the assay. This form of the enzyme has the full catalytic activity and the same substrate specificity as the full-length protein in the Apaf-1/Cytochrome C/dATP/Caspase-9 reconstituted system. Rat or Chicken BIR3 was used in this assay. […] This mixture was incubated for 40 min to allow equilibration at 25° C., and the assay progression was subsequently followed by monitoring the formation of fluorescent 7-amido-4-methylcoumarin over time at 460 nm using an excitation wavelength of 360 nm. […] EC50 values of tested BIR3 inhibitors or Caspase-9 rescuers were calculated from the percentage of Caspase-9 reactivation in the mixtures containing serially diluted concentrations of tested compound.

BIR3 domain of rat XIAP = BIR3 domain of rat XIAP (Rattus norvegicus, UniProt Q9R0I6); assay: Fluorescence polarization assay, binding to BIR3 from rat XIAP
BIR3 domain of rat XIAP, sequence (Q9R0I6 241-355): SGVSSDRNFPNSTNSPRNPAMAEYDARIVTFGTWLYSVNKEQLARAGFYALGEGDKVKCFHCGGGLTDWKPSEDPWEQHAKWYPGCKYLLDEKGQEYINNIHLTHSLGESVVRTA
Procedure: In fluorescence polarization assays a fluorescent probe is used. The binding affinity of compounds to BIR3 is measured by competitive displacement of a fluorescent probe using fluorescence polarization anisotropy. […] In other embodiments, the probe used is 6-(6-Hydroxy-3-oxo-3H-xanthen-9-yl)-N-(5-(2-methylamino-propionylamino)-6-oxo-6-[4-(1,2,3,4-tetrahydro-naphthalen-1-ylcarbamoyl)-thiazolidin-3-yl]-hexyl)-isophthalamic acid.
The binding affinity of compounds provided herein for rat BIR3 was measured by competitive displacement of a fluorescent probe using fluorescence polarization anisotropy. […] Control conditions were set up on each plate and include free probe 1 alone (5 nM), fully bound probe (5 μM BIR3+5 nM probe 1) and binding buffer blank. The-EC50 of binding was computed from a 4-parameter fit of the measured anisotropies using the SoftMax Pro 4.6 software package (Molecular Dynamics, Sunnyvale, Calif.).
Alternatively, probe 1 was substituted with probe 2: 6-(6-Hydroxy-3-oxo-3H-xanthen-9-yl)-N-{5-(2-methylamino-propionylamino)-6-oxo-6-[4-(1,2,3,4-tetrahydro-naphthalen-1-ylcarbamoyl)-thiazolidin-3-yl]-hexyl}-isophthalamic acid, for rat BIR3 and the concentrations of assay components changed. […] Controls were adjusted accordingly.

Structure (SMILES) | EC50 [1] [nM] | EC50 (BIR3 domain of rat XIAP) [nM]
CCCNC(C)C(=O)NC(C(=O)N1CCCC1C(=O)NC1CCCc2ccccc21)C(C)(C)C (stereo not shown) [1-[3,3-Dimethyl-2-(2-propylamino-propionylamino)-butyryl]-pyrrolidine-2-carboxylic acid (1,2,3,4-tetrahydro-naphthalen-1-yl)-amide] | 1000 to 10000 | < 1000
CNC(C)C(=O)NC(C(=O)N1Cc2ccccc2CC1C(=O)NC(c1ccccc1)c1ccccc1)C(C)C (stereo not shown) [2-[3-Methyl-2-(2-methylamino-propionylamino)-butyryl]-1,2,3,4-tetrahydro-isoquinoline-3-carboxylic acid benzhydryl-amide] | 1000 to 10000 | < 1000
CNC(C)C(=O)NC(C(=O)N1CCCC1C(=O)NN(Cc1ccccc1)Cc1ccccc1)C(C)(C)C (stereo not shown) [N-{1-[2-(N′,N′-Dibenzyl-hydrazinocarbonyl)-pyrrolidine-1-carbonyl]-2,2-dimethyl-propyl}-2-methylamino-propionamide] | 1000 to 10000 | < 1000
CNC(C)C(=O)NC(C(=O)NC(CCOCc1ccccc1)C(=O)NC1CCCc2ccccc21)C(C)C (stereo not shown) [N-[3-Benzyloxy-1-(1,2,3,4-tetrahydro-naphthalen-1-ylcarbamoyl)-propyl]-3-methyl-2-(2-methylamino-propionylamino)-butyramide] | 1000 to 10000 | < 1000
CN[C@@H](C)C(=O)N[C@H](C(=O)N[C@@H](CCCCNS(=O)(=O)c1ccc(C)cc1)C(=O)NC1CCCc2ccccc21)C(C)C (stereo in doubt) [2-[3-Methyl-2-(2-methylamino-propionylamino)-butyrylamino]-6-(toluene-4-sulfonylamino)-hexanoic acid (1,2,3,4-tetrahydro-naphthalen-1-yl)-amide] | < 1000 | < 1000
CNC(C)C(=O)NC(C(=O)N1CCCC1C(=O)NCCC(c1ccccc1)c1ccccc1)C(C)(C)C (stereo not shown) [1-[3,3-Dimethyl-2-(2-methylamino-propionylamino)-butyryl]-pyrrolidine-2-carboxylic acid (3,3-diphenyl-propyl)-amide] | > 10000 | 1000 to 10000
CNC(C)C(=O)NC(C(=O)N1Cc2ccccc2CC1C(=O)NC1CCCc2ccccc21)C(C)C (stereo not shown) [2-[3-Methyl-2-(2-methylamino-propionylamino)-butyryl]-1,2,3,4-tetrahydro-isoquinoline-3-carboxylic acid (1,2,3,4-tetrahydro-naphthalen-1-yl)-amide] | < 1000 | < 1000
CCCCS(=O)(=O)NCCCCC(NC(=O)C(NC(=O)C(C)NC)C(C)C)C(=O)NC1CCCc2ccccc21 (stereo not shown) [6-(Butane-1-sulfonylamino)-2-[3-methyl-2-(2-methylamino-propionylamino)-butyrylamino]-hexanoic acid (1,2,3,4-tetrahydro-naphthalen-1-yl)-amide] | < 1000 | < 1000
CNC(C)C(=O)NC(C(=O)N1CSCC1C(=O)NC(c1ccccc1)c1ccccc1)C(C)C (stereo not shown) [3-[3-Methyl-2-(2-methylamino-propionylamino)-butyryl]-thiazolidine-4-carboxylic acid benzhydryl-amide] | < 1000 | < 1000
CNC(C)C(=O)NC(C(=O)NC(CCNC(=O)OCc1ccccc1)C(=O)NC1CCCc2ccccc21)C(C)C (stereo not shown) [[3-[3-Methyl-2-(2-methylamino-propionylamino)-butyrylamino]-3-(1,2,3,4-tetrahydro-naphthalen-1-ylcarbamoyl)-propyl]-carbamic acid benzyl ester] | 1000 to 10000 | < 1000
CNC(C)C(=O)NC(C(=O)N1CSCC1C(=O)NN(Cc1ccccc1)Cc1ccccc1)C(C)C (stereo not shown) [N-{1-[4-(N′,N′-Dibenzyl-hydrazinocarbonyl)-thiazolidine-3-carbonyl]-2-methyl-propyl}-2-methylamino-propionamide] | < 1000 | < 1000
CNC(C)C(=O)NC(C(=O)N1CSCC1C(=O)NC(Cc1ccccc1)Cc1ccccc1)C(C)C (stereo not shown) [3-[3-Methyl-2-(2-methylamino-propionylamino)-butyryl]-thiazolidine-4-carboxylic acid (1-benzyl-2-phenyl-ethyl)-amide] | < 1000 | < 1000
CNC(C)C(=O)NC(C(=O)N(CCCCCNC(=O)OCc1ccccc1)CC(=O)NC1CCCc2ccccc21)C(C)C (stereo not shown) [(5-{[3-Methyl-2-(2-methylamino-propionylamino)-butyryl]-[(1,2,3,4-tetrahydro-naphthalen-1-ylcarbamoyl)-methyl]-amino}-pentyl)-carbamic acid benzyl ester] | 1000 to 10000 | < 1000
CNC(C)C(=O)NC(C(=O)N1Cc2ccccc2CC1C(=O)NC(Cc1ccccc1)Cc1ccccc1)C(C)C (stereo not shown) [2-[3-Methyl-2-(2-methylamino-propionylamino)-butyryl]-1,2,3,4-tetrahydro-isoquinoline-3-carboxylic acid (1-benzyl-2-phenyl-ethyl)-amide] | 1000 to 10000 | < 1000
CNC(C)C(=O)NC(C(=O)NC(CCC(=O)OCc1ccccc1)C(=O)NC1CCCc2ccccc21)C(C)C (stereo not shown) [4-[3-Methyl-2-(2-methylamino-propionylamino)-butyrylamino]-4-(1,2,3,4-tetrahydro-naphthalen-1-ylcarbamoyl)-butyric acid benzyl ester] | 1000 to 10000 | < 1000
CNC(C)C(=O)NC(C(=O)N1Cc2ccccc2CC1C(=O)NN(c1ccccc1)c1ccccc1)C(C)C (stereo not shown) [N-{1-[3-N′,N′-Diphenyl-hydrazinocarbonyl)-3,4-dihydro-1H-isoquinoline-2-carbonyl]-2-methyl-propyl}-2-methylamino-propionamide] | > 10000 | > 10000
CNC(C)C(=O)NC(C(=O)NC(CCCCNS(=O)(=O)c1ccc([N+](=O)[O-])cc1)C(=O)NC1CCCc2ccccc21)C(C)C (stereo not shown) [2-[3-Methyl-2-(2-methylamino-propionylamino)-butyrylamino]-6-(4-nitro-benzenesulfonylamino)-hexanoic acid (1,2,3,4-tetrahydro-naphthalen-1-yl)-amide] | < 1000 | < 1000
CNC(C)C(=O)NC1CCc2cccc3c2N(C1=O)C(C(=O)NC1CCCc2ccccc21)C3 (stereo not shown) [5-(2-Methylamino-propionylamino)-4-oxo-1,2,4,5,6,7-hexahydro-azepino[3,2,1-hi]indole-2-carboxylic ′acid (1,2,3,4-tetrahydro-naphthalen-1-yl)-amide] | 1000 to 10000 | < 1000

Continued, values first:

EC50 [1] [nM] | EC50 (BIR3 domain of rat XIAP) [nM] | Structure (SMILES)
< 1000 | < 1000 | CNC(C)C(=O)NC(C(=O)NC(C(=O)NC1CCCc2ccccc21)C1CCCCC1)C(C)C (stereo not shown) [N-[Cyclohexyl-(1,2,3,4-tetrahydro-naphthalen-1-ylcarbamoyl)-methyl]-3-methyl-2-(2-methylamino-propionylamino)-butyramide]
< 1000 | < 1000 | CNC(C)C(=O)NC(C(=O)N1CCSC1C(=O)NC1CCCc2ccccc21)C(C)C (stereo not shown) [3-[3-Methyl-2-(2-methylamino-propionylamino)-butyryl]-thiazolidine-2-carboxylic acid (1,2,3,4-tetrahydro-naphthalen-1-yl)-amide]
1000 to 10000 | < 1000 | CNC(C)C(=O)NC(C(=O)NC(COCc1ccccc1)C(=O)NC1CCCc2ccccc21)C(C)C (stereo not shown) [N-[2-Benzyloxy-1-(1,2,3,4-tetrahydro-naphthalen-1-ylcarbamoyl)-ethyl]-3-methyl-2-(2-methylamino-propionylamino)-butyramide]
1000 to 10000 | < 1000 | CNC(C)C(=O)NC(C(=O)NC(CCN)C(=O)NC1CCCc2ccccc21)C(C)C (stereo not shown) [N-[3-Amino-1-(1,2,3,4-tetrahydro-naphthalen-1-ylcarbamoyl)-propyl]-3-methyl-2-(2-methylamino-propionylamino)-butyramide]
< 1000 | < 1000 | CNC(C)C(=O)NC(C(=O)NC(CCCCN(C)C)C(=O)NC1CCCc2ccccc21)C(C)C (stereo not shown) [6-Dimethylamino-2-[3-methyl-2-(2-methylamino-propionylamino)-butyrylamino]-hexanoic acid (1,2,3,4-tetrahydro-naphthalen-1-yl)-amide]
1000 to 10000 | < 1000 | CNC(C)C(=O)NC(C(=O)N1CCSCC1C(=O)NC1CCCc2ccccc21)C(C)C (stereo not shown) [4-[3-Methyl-2-(2-methylamino-propionylamino)-butyryl]-thiomorpholine-3-carboxylic acid (1,2,3,4-tetrahydro-naphthalen-1-yl)-amide]
< 1000 | < 1000 | CNC(C)C(=O)NC(C(=O)N1C(C(=O)NC2CCCc3ccccc32)CC2CCCCC21)C(C)C (stereo not shown) [1-[3-Methyl-2-(2-methylamino-propionylamino)-butyryl]-octahydro-indole-2-carboxylic acid (1,2,3,4-tetrahydro-naphthalen-1-yl)-amide]
1000 to 10000 | < 1000 | CNC(C)C(=O)NC(C(=O)NC(CCO)C(=O)NC1CCCc2ccccc21)C(C)C (stereo not shown) [N-[3-Hydroxy-1-(1,2,3,4-tetrahydro-naphthalen-1-ylcarbamoyl)-propyl]-3-methyl-2-(2-methylamino-propionylamino)-butyramide]
